Values of other authors in patent publication US20210388441A1, “PREDICTING CHRONIC ALLOGRAFT INJURY THROUGH ISCHEMIA-INDUCED DNA METHYLATION” (VIB VZW, priority 2017, published 2021).

Test system: macrophage infiltration in kidneys
Conditions: through a decrease of macrophage infiltration in for instance kidneys

Structure (SMILES): CC(=O)C(C)CCC(=O)O (stereo not shown) [ERG240]
- inflammation: reduced inflammation
